Source: patent US20230074545A1, “TREATMENT OF CANCER WITH CDK12/13 INHIBITORS” (Kinnate Biopharma Inc., priority 2019, published 2023)

Columns and labels:
Test in all cases: Radiometric kinase panel
Format in all cases: biochemical
[1] = target: T1, CDK6/CycD1 (Homo sapiens, UniProt Q00534)
T1 construct: purchased ProQinase GmbH (Reaction Biology); host or cells: Sf9 insect cells or E. coli (not specified per kinase)
Procedure, shortened: (§1)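 Activity was measured radiometrically from [gamma-33P]-ATP incorporation into substrate. The kinases were recombinant human GST- or His-tagged proteins, full-length or active fragments, expressed in Sf9 or E. coli. Compound in 10% DMSO was added before the enzyme/substrate mix, which started the reaction.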

[2] = target: T2, SGK1 (Homo sapiens, UniProt O00141)
T2 construct: purchased ProQinase GmbH (Reaction Biology)
Procedure, shortened: as §1

[3] = target: T3, CK1alpha1 (Homo sapiens, UniProt P48729)
T3 construct: either as full-length or enzymatically active fragments; purchased ProQinase GmbH (Reaction Biology); host or cells: Sf9 insect cells or E. coli
Procedure, shortened: as §1

[4] = target: T4, MEKK2 (Homo sapiens, UniProt Q9Y2U5)
T4 construct: either as full-length or enzymatically active fragments; purchased ProQinase GmbH (Reaction Biology)
Procedure, shortened: as §1

[5] = target: T5, AKT3 (Homo sapiens, UniProt Q9Y243)
T5 construct: purchased ProQinase GmbH (Reaction Biology)
Procedure, shortened: as §1

[6] = target: T6, MUSK (Homo sapiens, UniProt O15146)
T6 construct: either as full-length or enzymatically active fragments; purchased ProQinase GmbH (Reaction Biology)
T6 sequence (O15146 24-869): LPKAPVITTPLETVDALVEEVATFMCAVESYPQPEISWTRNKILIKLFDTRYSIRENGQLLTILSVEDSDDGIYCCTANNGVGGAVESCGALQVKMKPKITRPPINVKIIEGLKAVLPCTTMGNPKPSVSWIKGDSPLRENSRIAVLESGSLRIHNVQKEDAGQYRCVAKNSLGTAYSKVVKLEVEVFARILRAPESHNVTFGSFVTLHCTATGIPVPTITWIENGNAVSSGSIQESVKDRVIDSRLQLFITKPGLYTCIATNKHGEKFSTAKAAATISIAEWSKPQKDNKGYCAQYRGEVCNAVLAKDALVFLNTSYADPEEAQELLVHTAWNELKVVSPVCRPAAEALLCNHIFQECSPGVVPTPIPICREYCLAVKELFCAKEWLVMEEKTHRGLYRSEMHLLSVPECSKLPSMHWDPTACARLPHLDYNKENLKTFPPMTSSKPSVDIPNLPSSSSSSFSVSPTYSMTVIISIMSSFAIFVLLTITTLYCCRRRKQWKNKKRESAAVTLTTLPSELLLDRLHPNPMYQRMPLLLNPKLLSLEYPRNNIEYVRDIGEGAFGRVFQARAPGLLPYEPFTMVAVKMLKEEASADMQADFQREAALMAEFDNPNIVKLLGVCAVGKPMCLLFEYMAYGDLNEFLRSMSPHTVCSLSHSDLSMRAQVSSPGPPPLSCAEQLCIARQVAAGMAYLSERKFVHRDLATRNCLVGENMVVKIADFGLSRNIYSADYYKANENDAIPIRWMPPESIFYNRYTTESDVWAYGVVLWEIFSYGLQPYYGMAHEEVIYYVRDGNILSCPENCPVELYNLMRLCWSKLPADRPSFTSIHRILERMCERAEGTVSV
Procedure, shortened: as §1

[7] = target: T7, LYN (Homo sapiens, UniProt P07948)
T7 construct: either as full-length or enzymatically active fragments; purchased ProQinase GmbH (Reaction Biology)
Procedure, shortened: as §1

[8] = target: T8, PKCbeta2 (Homo sapiens, UniProt P05771)
T8 construct: either as full-length or enzymatically active fragments; purchased ProQinase GmbH (Reaction Biology)
Procedure, shortened: as §1

[9] = target: T9, MTOR (Homo sapiens, UniProt P42345)
T9 construct: purchased ProQinase GmbH (Reaction Biology); host or cells: Sf9 insect cells or E. coli (not specified per kinase)
Procedure, shortened: as §1

[10] = target: T10, MKK7 (Homo sapiens, UniProt O14733)
T10 construct: either as full-length or enzymatically active fragments; purchased ProQinase GmbH (Reaction Biology); host or cells: Sf9 insect cells or E. coli (not specified per kinase)
Procedure, shortened: as §1

[11] = target: T11, ERBB2 (Homo sapiens, UniProt P04626)
T11 construct: either as full-length or enzymatically active fragments; purchased ProQinase GmbH (Reaction Biology)
Procedure, shortened: as §1

[12] = target: T12, MARK1 (Homo sapiens, UniProt Q9P0L2)
T12 construct: purchased ProQinase GmbH (Reaction Biology)
Procedure, shortened: as §1

[13] = target: T13, MAPKAPK5 (Homo sapiens, UniProt Q8IW41)
T13 construct: purchased ProQinase GmbH (Reaction Biology)
Procedure, shortened: as §1

[14] = target: T14, FGFR3 (Homo sapiens, UniProt P22607)
T14 construct: either as full-length or enzymatically active fragments; purchased ProQinase GmbH (Reaction Biology); host or cells: Sf9 insect cells or E. coli
Procedure, shortened: as §1

[15] = target: T15, PKCiota (Homo sapiens, UniProt P41743)
T15 construct: either as full-length or enzymatically active fragments; purchased ProQinase GmbH (Reaction Biology)
Procedure, shortened: as §1

[16] = target: T16, SRC (Homo sapiens, UniProt P12931)
T16 construct: either as full-length or enzymatically active fragments; purchased ProQinase GmbH (Reaction Biology)
Procedure, shortened: as §1

[17] = target: T17, RPS6KA3 (Homo sapiens, UniProt P51812)
T17 construct: purchased ProQinase GmbH (Reaction Biology); host or cells: Sf9 insect cells or E. coli (not specified per kinase)
T17 sequence (P51812 whole entry): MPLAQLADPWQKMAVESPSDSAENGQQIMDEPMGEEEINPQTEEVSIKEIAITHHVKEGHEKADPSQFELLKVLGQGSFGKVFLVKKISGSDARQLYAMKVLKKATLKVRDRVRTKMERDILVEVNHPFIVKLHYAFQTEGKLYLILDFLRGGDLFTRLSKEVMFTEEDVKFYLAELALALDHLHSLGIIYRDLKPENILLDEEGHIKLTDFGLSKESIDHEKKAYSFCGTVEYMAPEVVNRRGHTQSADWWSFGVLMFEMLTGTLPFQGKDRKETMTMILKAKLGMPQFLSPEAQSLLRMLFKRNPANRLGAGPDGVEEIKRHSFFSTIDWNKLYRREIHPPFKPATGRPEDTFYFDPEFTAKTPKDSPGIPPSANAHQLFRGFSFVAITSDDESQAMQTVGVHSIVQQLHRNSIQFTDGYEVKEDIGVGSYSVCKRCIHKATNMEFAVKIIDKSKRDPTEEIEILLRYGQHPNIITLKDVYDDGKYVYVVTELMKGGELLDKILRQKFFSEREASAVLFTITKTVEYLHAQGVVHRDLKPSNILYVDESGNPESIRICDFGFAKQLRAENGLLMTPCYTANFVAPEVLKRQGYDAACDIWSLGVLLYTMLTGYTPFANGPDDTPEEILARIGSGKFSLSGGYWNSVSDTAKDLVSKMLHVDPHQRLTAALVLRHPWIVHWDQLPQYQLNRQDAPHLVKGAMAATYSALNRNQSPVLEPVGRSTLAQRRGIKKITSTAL
Procedure, shortened: as §1

[18] = target: T18, RPS6KA2 (Homo sapiens, UniProt Q15349)
T18 construct: either as full-length or enzymatically active fragments; purchased ProQinase GmbH (Reaction Biology); host or cells: Sf9 insect cells or E. coli
Procedure, shortened: as §1

[19] = target: T19, STK39 (Homo sapiens, UniProt Q9UEW8)
T19 construct: either as full-length or enzymatically active fragments; purchased ProQinase GmbH (Reaction Biology)
Procedure, shortened: as §1

[20] = target: T20, CDK19/CycC (Homo sapiens, UniProt Q9BWU1)
T20 construct: either as full-length or enzymatically active fragments; purchased ProQinase GmbH (Reaction Biology); host or cells: Sf9 insect cells or E. coli (not specified per kinase)
Procedure, shortened: as §1

[21] = target: T21, DYRK4 (Homo sapiens, UniProt Q9NR20)
T21 construct: either as full-length or enzymatically active fragments; purchased ProQinase GmbH (Reaction Biology)
Procedure, shortened: as §1

[22] = target: T22, PKCmu (Homo sapiens, UniProt Q15139)
T22 construct: either as full-length or enzymatically active fragments; purchased ProQinase GmbH (Reaction Biology)
Procedure, shortened: as §1

[23] = target: T23, MAP3K11 (Homo sapiens, UniProt Q16584)
T23 construct: either as full-length or enzymatically active fragments; purchased ProQinase GmbH (Reaction Biology)
Procedure, shortened: as §1

[24] = target: T24, ROS (Homo sapiens, UniProt P08922)
T24 construct: either as full-length or enzymatically active fragments; purchased ProQinase GmbH (Reaction Biology)
Procedure, shortened: as §1

[25] = target: T25, MINK1 (Homo sapiens, UniProt Q8N4C8)
T25 construct: either as full-length or enzymatically active fragments; purchased ProQinase GmbH (Reaction Biology)
Procedure, shortened: as §1

[26] = target: T26, MET (Homo sapiens, UniProt P08581)
T26 construct: purchased ProQinase GmbH (Reaction Biology); host or cells: Sf9 insect cells or E. coli (not specified per kinase)
T26 sequence (P08581 25-1390): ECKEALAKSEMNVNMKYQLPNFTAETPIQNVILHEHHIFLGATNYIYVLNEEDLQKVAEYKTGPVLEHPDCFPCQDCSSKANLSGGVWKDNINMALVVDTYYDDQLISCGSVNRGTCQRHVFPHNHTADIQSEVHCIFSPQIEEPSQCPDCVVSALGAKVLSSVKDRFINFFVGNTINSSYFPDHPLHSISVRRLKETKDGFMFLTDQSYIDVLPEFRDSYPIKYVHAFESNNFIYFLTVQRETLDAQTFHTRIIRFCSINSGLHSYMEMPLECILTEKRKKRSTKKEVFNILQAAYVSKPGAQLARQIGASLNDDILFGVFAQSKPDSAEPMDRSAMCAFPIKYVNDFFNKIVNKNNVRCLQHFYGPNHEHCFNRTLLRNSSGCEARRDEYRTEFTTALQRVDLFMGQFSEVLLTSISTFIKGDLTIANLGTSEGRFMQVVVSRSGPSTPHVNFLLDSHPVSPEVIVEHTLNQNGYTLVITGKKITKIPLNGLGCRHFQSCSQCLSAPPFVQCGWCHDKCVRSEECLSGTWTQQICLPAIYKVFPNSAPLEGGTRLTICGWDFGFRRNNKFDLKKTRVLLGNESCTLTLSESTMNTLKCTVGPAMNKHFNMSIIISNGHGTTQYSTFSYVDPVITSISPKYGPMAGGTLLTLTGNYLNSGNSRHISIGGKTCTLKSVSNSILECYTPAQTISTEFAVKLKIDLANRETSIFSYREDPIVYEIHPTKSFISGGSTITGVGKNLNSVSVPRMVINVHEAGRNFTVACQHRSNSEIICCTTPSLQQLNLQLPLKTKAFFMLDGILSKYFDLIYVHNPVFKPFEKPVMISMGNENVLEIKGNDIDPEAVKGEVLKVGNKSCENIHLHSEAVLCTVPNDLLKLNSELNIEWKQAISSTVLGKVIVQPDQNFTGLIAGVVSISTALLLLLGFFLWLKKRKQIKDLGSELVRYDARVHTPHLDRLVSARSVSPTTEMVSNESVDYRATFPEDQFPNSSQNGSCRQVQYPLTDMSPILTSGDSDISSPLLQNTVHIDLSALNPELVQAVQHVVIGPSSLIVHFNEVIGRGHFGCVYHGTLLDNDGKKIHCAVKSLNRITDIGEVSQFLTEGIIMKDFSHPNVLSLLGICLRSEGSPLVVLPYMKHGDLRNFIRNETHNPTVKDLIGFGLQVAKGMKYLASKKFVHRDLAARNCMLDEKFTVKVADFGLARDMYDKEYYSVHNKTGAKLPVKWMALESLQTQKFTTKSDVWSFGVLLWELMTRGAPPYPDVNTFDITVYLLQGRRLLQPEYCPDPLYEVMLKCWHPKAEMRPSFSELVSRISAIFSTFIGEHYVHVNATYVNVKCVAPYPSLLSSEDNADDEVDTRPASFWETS
Procedure, shortened: as §1

[27] = target: T27, AMPKalpha1 (Homo sapiens, UniProt Q13131)
T27 construct: either as full-length or enzymatically active fragments; purchased ProQinase GmbH (Reaction Biology)
T27 sequence (Q13131 whole entry, the tested form may be a part): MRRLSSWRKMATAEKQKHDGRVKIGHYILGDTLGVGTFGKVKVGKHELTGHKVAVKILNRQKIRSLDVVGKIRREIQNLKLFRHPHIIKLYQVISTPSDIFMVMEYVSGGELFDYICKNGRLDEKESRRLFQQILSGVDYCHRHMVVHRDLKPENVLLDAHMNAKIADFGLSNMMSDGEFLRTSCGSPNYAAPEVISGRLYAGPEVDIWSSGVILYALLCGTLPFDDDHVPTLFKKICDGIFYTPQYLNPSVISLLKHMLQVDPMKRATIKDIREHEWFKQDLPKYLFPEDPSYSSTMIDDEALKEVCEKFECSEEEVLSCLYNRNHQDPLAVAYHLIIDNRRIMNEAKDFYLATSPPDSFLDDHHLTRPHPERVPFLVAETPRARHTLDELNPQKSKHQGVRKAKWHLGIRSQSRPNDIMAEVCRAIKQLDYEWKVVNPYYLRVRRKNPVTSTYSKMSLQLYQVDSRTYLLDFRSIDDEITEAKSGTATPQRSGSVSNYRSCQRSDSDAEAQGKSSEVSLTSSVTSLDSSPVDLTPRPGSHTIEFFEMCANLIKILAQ
Procedure, shortened: as §1

[28] = target: T28, STK25 (Homo sapiens, UniProt O00506)
T28 construct: either as full-length or enzymatically active fragments; purchased ProQinase GmbH (Reaction Biology)
T28 sequence (O00506 whole entry, the tested form may be a part): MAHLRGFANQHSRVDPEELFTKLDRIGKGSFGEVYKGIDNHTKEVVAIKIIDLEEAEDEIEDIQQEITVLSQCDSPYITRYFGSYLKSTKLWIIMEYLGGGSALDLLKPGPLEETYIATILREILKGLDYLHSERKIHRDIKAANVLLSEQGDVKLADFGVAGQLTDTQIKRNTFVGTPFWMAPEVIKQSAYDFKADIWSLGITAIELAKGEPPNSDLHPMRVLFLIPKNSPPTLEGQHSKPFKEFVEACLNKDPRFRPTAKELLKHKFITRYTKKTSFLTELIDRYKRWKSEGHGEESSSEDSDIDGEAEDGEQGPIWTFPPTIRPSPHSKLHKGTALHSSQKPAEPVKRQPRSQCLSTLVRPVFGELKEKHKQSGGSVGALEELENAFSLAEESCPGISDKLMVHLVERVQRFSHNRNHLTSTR
Procedure, shortened: as §1

[29] = target: T29, HCK (Homo sapiens, UniProt P08631)
T29 construct: purchased ProQinase GmbH (Reaction Biology)
Procedure, shortened: as §1

[30] = target: T30, CDK6/CycD2 (Homo sapiens, UniProt Q00534)
T30 construct: either as full-length or enzymatically active fragments; purchased ProQinase GmbH (Reaction Biology)
T30 sequence (Q00534 whole entry, the tested form may be a part): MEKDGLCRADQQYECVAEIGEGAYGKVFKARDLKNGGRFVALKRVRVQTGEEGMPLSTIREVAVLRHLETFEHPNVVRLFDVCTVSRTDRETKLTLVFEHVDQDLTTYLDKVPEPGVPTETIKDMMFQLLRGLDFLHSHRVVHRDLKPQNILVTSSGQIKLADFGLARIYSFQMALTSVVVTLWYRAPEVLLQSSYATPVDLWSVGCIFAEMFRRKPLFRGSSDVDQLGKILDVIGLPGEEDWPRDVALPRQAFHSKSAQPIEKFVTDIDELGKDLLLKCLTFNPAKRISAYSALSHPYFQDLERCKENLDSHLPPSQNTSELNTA
T30 sequence (P30279 whole entry partner, the tested form may be a part): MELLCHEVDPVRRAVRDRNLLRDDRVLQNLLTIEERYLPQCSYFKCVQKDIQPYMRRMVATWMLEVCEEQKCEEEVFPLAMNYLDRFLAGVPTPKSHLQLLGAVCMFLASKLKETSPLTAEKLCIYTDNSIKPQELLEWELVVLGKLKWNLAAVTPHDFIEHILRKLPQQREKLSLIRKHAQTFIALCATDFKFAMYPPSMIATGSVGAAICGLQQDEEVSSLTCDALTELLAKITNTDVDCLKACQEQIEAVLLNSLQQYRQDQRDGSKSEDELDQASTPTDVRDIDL
Procedure, shortened: as §1

T1 sequence (Q00534 whole entry): as the sequence (Q00534 whole entry, the tested form may be a part) above
T1 sequence (P24385 whole entry partner): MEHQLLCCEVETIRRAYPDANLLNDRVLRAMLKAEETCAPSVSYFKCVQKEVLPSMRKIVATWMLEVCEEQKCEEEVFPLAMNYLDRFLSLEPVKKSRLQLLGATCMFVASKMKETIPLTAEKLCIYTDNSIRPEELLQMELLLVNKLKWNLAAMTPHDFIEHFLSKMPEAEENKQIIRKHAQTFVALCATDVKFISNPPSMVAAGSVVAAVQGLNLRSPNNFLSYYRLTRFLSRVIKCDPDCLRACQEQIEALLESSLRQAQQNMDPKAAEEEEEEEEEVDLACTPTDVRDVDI

C=CC(=O)Nc1ccc(C(=O)N2CC[C@@H](Nc3ncc(C#N)cn3)C2)cc1 [Compound 4, (R)-N-(4-(3-((5-cyanopyrimidin-2-yl)amino)pyrrolidine-1-carbonyl)phenyl)acrylamide]
inhibition at 1 µM [1]: 1% | inhibition at 1 µM [2]: -2% | inhibition at 1 µM [3]: 12% | inhibition at 1 µM [4]: 8% | inhibition at 1 µM [5]: -2% | inhibition at 1 µM [6]: 7% | inhibition at 1 µM [7]: -8% | inhibition at 1 µM [8]: 7% | inhibition at 1 µM [9]: 1% | inhibition at 1 µM [10]: 11% | inhibition at 1 µM [11]: 5% | inhibition at 1 µM [12]: 0% | inhibition at 1 µM [13]: -1% | inhibition at 1 µM [14]: -16% | inhibition at 1 µM [15]: -4% | inhibition at 1 µM [16]: -5% | inhibition at 1 µM [17]: 1% | inhibition at 1 µM [18]: 12% | inhibition at 1 µM [19]: 6% | inhibition at 1 µM [20]: 10% | inhibition at 1 µM [21]: -7% | inhibition at 1 µM [22]: 3% | inhibition at 1 µM [23]: -7% | inhibition at 1 µM [24]: 2% | inhibition at 1 µM [25]: 16% | inhibition at 1 µM [26]: 0% | inhibition at 1 µM [27]: 2% | inhibition at 1 µM [28]: 7% | inhibition at 1 µM [29]: 0% | inhibition at 1 µM [30]: -14%
